“Also recorded” adds a separate entry of the source.
Columns and labels:
Assay type in all cases: cell-based, human
HERVK-LTR5HS = test: ChIP-qPCR of 5 mC occupation in HERVK-LTR5HS in treated hMPCs; conditions: hMPCs of early passage; vs cells not treated
Protocol: (§1) For 5-azacytidine (5-AZA) treatment, hMPCs were seeded (generation 0 (P0) after treatment), and treated by […] 5-AZA for 4 days, followed by passage and culture in fresh medium. At P2 after treatment (6 days after 5-AZA treatment), cells was used for Ki67 immunofluorescence, SA-O-gal staining and RNA/DNA extraction.
Cells were fixed in 1% formaldehyde dissolved in PBS at room temperature for 10 min, and then, quenched by 125 mM glycine. Cells were lysed on ice for 10 min, and subjected to ultrasonic treatment with Covaris S220. Collected supernatant was incubated with Dynabeads Protein A (Life Technologies, 10001D) pre-mixed with 2.3 μg specified antibody at 4° C. overnight. After washing, samples were digested by Protease K (New England Biolabs), eluted and cross-link-reversed on thermal mixer at 68° C. for 2 h. DNA was extracted with phenol-chloroform-isoamylol, and eluted DNA was analyzed by qPCR.
5-AZA (a DNA methyltransferase inhibitor (DNMTi)) was used to treat hMPCs of early passage. ChIP-qPCR and RT-qPCR analyses were performed on treated cells, cells not treated by 5-AZA were used as control.

HERVK = test: RT-qPCR and Western blot of HERVK and senescence markers in hMPCs after HERVK activation or 5-AZA treatment; conditions: RT-qPCR
Protocol: (§2) Cells were lysed in 1×SDS buffer (100 mM Tris-HCl, pH 6.8, 10% glycerol, 2% SDS and 2%2-mercaptoethanol), boiled for 10 min at 105° C. Protein concentration was measured by BCA kit. Cell lysate was subjected to SDS-PAGE electrophoresis, then transferred to PVDF membrane (Millipore). The membrane was incubated with primary antibody, incubated with secondary antibody conjugated to HRP after washing, then blotted with substrate, the substrate was the mixture of 1000 μL substrate A and 3 μL substrate B (substrate A: 0.2 mM cumaric acid, 1.25 mM luminal, 0.1 M Tris-HCl, pH 8.5; substrate B: 3% H2O2) or Super Signal West Femto Maximum Sensitivity Substrate (Thermo Fisher Scientific). Images were taken by Image Lab software. Quantification was conducted by ImageJ.
(§3) In accordance with the manufacturer's instructions, total RNA of cell was extracted by TRIzol (Thermo Fisher Scientific); reverse transcribed into cDNA with GoScript reverse transcription system (Promega) for RT-qPCR; RT-qPCR was conducted with THUNDERBIRD qPCR Mix (TOYOBO) and CFX384 real-time system (Bio-Rad Laboratories, Inc.).
To activate endogenous HERVK, non-targeted control or lentivirus construct with HERVK LTR targeted sgRNA was cloned to lenti-SAM v2 (addgene #75112) through ESP3I site, and co-transfected with lenti-MPH v2 (addgene #89308). […]
HERVK-activated cell was analyzed by RT-qPCR and Western blot. […]

hMPCs = test: Analysis of classical aging characteristics (SA-β-gal, Ki67, clonal expansion) in hMPCs; conditions: hMPCs after HERVK activation or 5-AZA treatment
Protocol: Cells seeded on coverslip (Thermo Fisher Scientific) were washed by PBS, fixed in 4% paraformaldehyde (PFA), permeabilized in 0.4% Triton X-100, blocked by 10% donkey serum. The coverslip was incubated with primary antibody at 4° C. in blocking buffer, then incubated with secondary antibody at room temperature for 1 h. Nucleus was labelled by Hoechst 33342 (Invitrogen).
as §1
For lentivirus transduction, hMPCs were seeded (P0 after treatment) and incubated with lentivirus in the presence of polybrene (Sigma-Aldrich) for 24 h. After two passages, treated cells were used for Ki67 immunofluorescence, SA-β-gal staining and RNA/DNA extraction.
5 thousand cells were seeded in one well of 6-well plate (Corning) cover with gelatin (Sigma), and cultured for about 10 days. Cells were fixed by 4% PFA, stained by 10% crystal violet for 30 min. Relative cell integral density was calculated by ImageJ software.
Cells were fixed by a buffer containing 2% (w/v) formaldehyde and 0.2% (w/v) glutaraldehyde for 5 min, and treated by staining buffer containing 1 mg/mL X-gal at 37° C. overnight.
In particular, relative percentage of cells positive for senescence associated β-galactosidase (SA-β-gal) was increased, the number of Ki67 positive cells was decreased and the clonal expansion ability was reduced (as shown by FIGS. 12C-12E).

cGAS-STING pathway = test: cGAS-STING innate immune pathway and SASP in hMPCs (Western blot, RT-qPCR); conditions: hMPCs with activated endogenous HERVK
Protocol: as §2, §3
To further study the activation of cGAS-STING DNA sensing pathway, the following key characteristics in different senescent hMPCs (including RS, HGPS and WS) and fibroblasts were detected: […] TANK binding kinase 1 (TBK1) and IFN regulating factor 3 (IRF3) as well as proinflammatory cytokines (e.g., IL1B andIL6), these factors were regarded as SASP factors.

Nc1ncn([C@@H]2O[C@H](CO)[C@@H](O)[C@H]2O)c(=O)n1 [5-AZA, 5-azacytidine]
5 mC occupation in HERVK-LTR5HS (HERVK-LTR5HS): reduce; also recorded: decrease
senescence marker p16INK4a level (HERVK): increased
HERVK RNA level (HERVK; vs untreated or non-targeting sgRNA control): increase
SA-β-gal positive cells (hMPCs): increased
cell senescence (overall) (hMPCs): caused premature senescence; also recorded: induces senescence
clonal expansion ability (hMPCs): reduced
number of Ki67 positive cells (hMPCs): decreased
expression of SASP cytokine (cGAS-STING pathway): up-regulated
level of phosphorylated IRF3 (cGAS-STING pathway): increased
level of phosphorylated RelA (cGAS-STING pathway): increased
level of phosphorylated TBK1 (cGAS-STING pathway): increased
